Key:
HT 1080 cell [1] = assay: MTT assay, cell survival rate (Example 8); assay type: cell-based; conditions: for cell survival rate (MTT assay): 24 hours
GRP 78 = assay: Western blot of GRP 78 expression in HT 1080 cell (Examples 6, 7); assay type: cell-based; conditions: glucose-deficient condition, cultured 18 hours, FIGS. 5 to 8
Description: In Example 6, the action of the VST derivative to inhibit expression of GRP 78 was studied by Western blot method. In the present experiment, the compounds prepared in Example 1 (the compounds having the chemical structure represented by “Formula 11” as the substituent group R^1 (n=3)) was used as the VST derivative.
Expression of GRP 78 is known to induce under glucose-deficient condition. Thus in the present experiment, the action of the VST derivative to induce or inhibit expression of GPR78 was studied both under glucose-deficient condition and also under normal condition.
The experiment was performed generally in the following manner: First, HT 1080 cell (cancer cell) was cultured in RPMI 1640 medium. […] Then, cultured cells were harvested, and GRP 78 expressed was detected by Western blotting with an anti-GRP 78 antibody.
Then, the cell was cultured in a similar manner and condition to those in Example 6, and GRP 78 expressed was detected by Western blotting by using an anti-GRP 78 antibody.

HT 1080 cell [2] = assay: Toxicity at the cell level, cell count at 100 μM (Examples 11, 12); assay type: cell-based
Procedure: HT 1080 cell was cultured in a 6-cm dish until the cells became 70% confluent, and VST or a VST derivative was added to a concentration of 10, 3, or 1 μM in the absence of glucose (in the glucose-deficient state), and the action thereof was studied.
In the present Example, the VST derivative prepared in Example 1 (the compounds having the chemical structure represented by “Formula 11” as the substituent group R^1 (n=3)) was used as the VST derivative. […] In the present Example, VST or the VST derivative was added at a concentration of 100 μM.
In the present Example, the culture cell was brought into the glucose-deficient state by addition of 2-deoxyglucose.
The three kinds of VST biotin derivatives prepared in Example 7 were used as the VST derivatives. In the present Example, VST or the VST derivative was added to a concentration of 100 μM, and 2-DG, to a concentration of 20 mM.

ICR mice = assay: Acute toxicity experiment in mice (Example 13); assay type: in vivo; conditions: male ICR mice, tail vein injection
Procedure: The mice used were 7- to 8-week old male ICR mice (available from Charles River). VST or a VST derivative was administered to each mouse by tail vein injection, and the toxicity thereof was studied. In the present experiment, the VST biotin derivative prepared in Example 7 was used as the VST derivative.

Row | Compound | cell survival rate (MTT assay) (HT 1080 cell [1]; 20 mM 2-DG alone) | addition amount above which the cell survival rate declined significantly (HT 1080 cell [1]; 2-DG not added, MTT assay) | cell survival rate (MTT assay) (HT 1080 cell [1]; 2-DG not added, increasing addition amount, derivatives = VST-Biotin, VST-Biotin-C6, VST-Biotin-C12) | cell survival rate (MTT assay) (HT 1080 cell [1]; with 20 mM 2-DG (glucose-deficient state), derivatives = VST-Biotin, VST-Biotin-C6, VST-Biotin-C12) | induction of GRP 78 expression (Western blot) (GRP 78) | cell death (HT 1080 cell [2]; Example 11: HT 1080 cell, glucose-deficient state) | cell count (HT 1080 cell [2]; Example 11: HT 1080 cell, normal culture environment (glucose present)) | cell death (HT 1080 cell [2]; Example 12: HT 1080 cell, glucose-deficient state by 2-DG 20 mM, three VST biotin derivatives of Example 7) | cell count (HT 1080 cell [2]; Example 12: HT 1080 cell, normal culture environment, three VST biotin derivatives of Example 7) | Number of dead animals (within 24 hours) (ICR mice; 6 mg/kg) | Number of dead animals (within 24 hours) (ICR mice; 9 mg/kg) | Number of dead animals (within 24 hours) (ICR mice; 12 mg/kg) | Number of dead animals (within 24 hours) (ICR mice; 15 mg/kg) | Number of dead animals (within 24 hours) (ICR mice; 18 mg/kg) | Number of dead animals (within 24 hours) (ICR mice; 21 mg/kg) | Number of dead animals (within 24 hours) (ICR mice; 30 mg/kg) | dosage leading to death of all mice (ICR mice; summary of Table 1)
1 | O=CC[C@@H](O)[C@H](O)[C@H](O)CO [Example 2-DG, 2-deoxyglucose] | approximately 50% |  |  |  |  |  |  |  |  |  |  |  |  |  |  |  | 
2 | versipelostatin [VST] |  | exceeded 25 μM | declined significantly | around 30% | inhibited to some extent | cell death | significant decrease in cell count | cell death | significant drop in cell count | 0 | 0 | 1 | 5 | 4 | 4 | 4 | more than 18 mg/kg

From patent US20090124562A1, “Versipelostatin derivative, anti-cancer agent and processes for production of the derivative and agent” (TOUDAI TLO, LTD., priority 2005, published 2009)
